According to PubChem BioAssay (NCI):
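The concentration for 50% growth inhibition is given as GI50. TGI is the concentration that stops growth completely.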

Assays:
Test in all cases: NCI anticancer screen, dose series, 384-well format
[1] = system: 786-0 renal
[2] = system: A498 renal
[3] = system: A549 NSCLC
[4] = system: ACHN renal
[5] = system: BT-549 breast
[6] = system: CAKI-1 renal
[7] = system: CCRF-CEM leukemia
[8] = system: COLO 205 colon
[9] = system: DU-145 prostate
[10] = system: EKVX NSCLC
[11] = system: HCC-2998 colon
[12] = system: HCT-116 colon
[13] = system: HCT-15 colon
[14] = system: HL-60(TB) leukemia
[15] = system: HOP-62 NSCLC
[16] = system: HOP-92 NSCLC
[17] = system: HS 578T breast
[18] = system: HT29 colon
[19] = system: IGROV1 ovarian
[20] = system: K-562 leukemia
[21] = system: KM12 colon
[22] = system: LOX IMVI melanoma
[23] = system: M14 melanoma
[24] = system: MALME-3M melanoma
[25] = system: MCF7 breast
[26] = system: MDA-MB-231 breast
[27] = system: MDA-MB-435 melanoma
[28] = system: MDA-MB-468 breast
[29] = system: MOLT-4 leukemia
[30] = system: NCI-H226 lung
[31] = system: NCI-H23 lung
[32] = system: NCI-H322M lung
[33] = system: NCI-H460 NSCLC
[34] = system: NCI/ADR-RES ovarian
[35] = system: OVCAR-3 ovarian
[36] = system: OVCAR-4 ovarian
[37] = system: OVCAR-5 ovarian
[38] = system: OVCAR-8 ovarian
[39] = system: PC-3 prostate
[40] = system: RPMI-8226 leukemia
[41] = system: RXF 393 renal
[42] = system: SF-268 CNS
[43] = system: SF-295 CNS
[44] = system: SF-539 CNS
[45] = system: SK-MEL-2 melanoma
[46] = system: SK-MEL-28 melanoma
[47] = system: SK-MEL-5 melanoma
[48] = system: SK-OV-3 ovarian
[49] = system: SN12C renal
[50] = system: SNB-19 CNS
[51] = system: SNB-75 CNS
[52] = system: SW-620 colon
[53] = system: T-47D breast
[54] = system: TK-10 renal
[55] = system: U251 glioblastoma
[56] = system: UACC-257 melanoma
[57] = system: UACC-62 melanoma
[58] = system: UO-31 renal

CC(C)c1cnc(-c2cc(Cl)ccc2F)cc1Nc1ccncc1C(=O)NC(CO)CO
GI50 [1]: 9.73 µM
TGI [1]: 21.5 µM
GI50 [2]: 2.33 µM
TGI [2]: 16.1 µM
GI50 [3]: 2.22 µM
TGI [3]: 15 µM
GI50 [4]: 2.34 µM
TGI [4]: 15.3 µM
GI50 [5]: 0.383 µM
TGI [5]: 3.2 µM
GI50 [6]: 10.4 µM
TGI [6]: 22.1 µM
GI50 [7]: 5.22 µM
TGI [7]: 17.1 µM
GI50 [8]: 2.56 µM
TGI [8]: 14 µM
GI50 [9]: 11.5 µM
TGI [9]: 23.7 µM
GI50 [10]: 2.57 µM
TGI [10]: 16.8 µM
GI50 [11]: 15.9 µM
TGI [11]: 29.4 µM
GI50 [12]: 10.7 µM
TGI [12]: 22.6 µM
GI50 [13]: 12.7 µM
TGI [13]: 25.3 µM
GI50 [14]: 0.263 µM
TGI [14]: 1.57 µM
GI50 [15]: 10.6 µM
TGI [15]: 22.4 µM
GI50 [16]: 6.81 µM
TGI [16]: 19.8 µM
GI50 [17]: 10.5 µM
TGI [17]: 22.3 µM
GI50 [18]: 13.3 µM
TGI [18]: 26.1 µM
GI50 [19]: 13.2 µM
TGI [19]: 26 µM
GI50 [20]: 7.06 µM
TGI [20]: 19.5 µM
GI50 [21]: 2.76 µM
TGI [21]: 15.9 µM
GI50 [22]: 1.1 µM
TGI [22]: 2.82 µM
GI50 [23]: 4.27 µM
TGI [23]: 19 µM
GI50 [24]: 2.14 µM
TGI [24]: 11.2 µM
GI50 [25]: 0.124 µM
TGI [25]: 5.16 µM
GI50 [26]: 0.964 µM
TGI [26]: 14.5 µM
GI50 [27]: 9.98 µM
TGI [27]: 21.6 µM
GI50 [28]: 4.51 µM
TGI [28]: 15.1 µM
GI50 [29]: 5.48 µM
TGI [29]: 17.7 µM
GI50 [30]: 1.2 µM
TGI [30]: 12.2 µM
GI50 [31]: 0.892 µM
TGI [31]: 9.05 µM
GI50 [32]: 2.01 µM
TGI [32]: 15.6 µM
GI50 [33]: 12.3 µM
TGI [33]: 24.8 µM
GI50 [34]: 10.8 µM
TGI [34]: 22.9 µM
GI50 [35]: 12.8 µM
TGI [35]: 25.5 µM
GI50 [36]: 0.581 µM
TGI [36]: 2.65 µM
GI50 [37]: 14.1 µM
TGI [37]: 27.1 µM
GI50 [38]: 1.57 µM
TGI [38]: 5.09 µM
GI50 [39]: 2.22 µM
TGI [39]: 11.7 µM
GI50 [40]: 0.172 µM
TGI [40]: 2 µM
GI50 [41]: 1.36 µM
TGI [41]: 9.34 µM
GI50 [42]: 3.8 µM
TGI [42]: 17.6 µM
GI50 [43]: 5.02 µM
TGI [43]: 17.7 µM
GI50 [44]: 1.16 µM
TGI [44]: 11.6 µM
GI50 [45]: 20.5 µM
TGI [45]: 34.8 µM
GI50 [46]: 7.17 µM
TGI [46]: 20.5 µM
GI50 [47]: 11.6 µM
TGI [47]: 23.8 µM
GI50 [48]: 0.832 µM
TGI [48]: 14.2 µM
GI50 [49]: 11.4 µM
TGI [49]: 23.6 µM
GI50 [50]: 13.1 µM
TGI [50]: 25.9 µM
GI50 [51]: 12.1 µM
TGI [51]: 24.5 µM
GI50 [52]: 5.89 µM
TGI [52]: 19.5 µM
GI50 [53]: 3.81 µM
TGI [53]: 17.2 µM
GI50 [54]: 10.3 µM
TGI [54]: 22.1 µM
GI50 [55]: 13.7 µM
TGI [55]: 26.6 µM
GI50 [56]: 12.5 µM
TGI [56]: 25.1 µM
GI50 [57]: 0.852 µM
TGI [57]: 18.2 µM
GI50 [58]: 12.7 µM
TGI [58]: 25.4 µM

CCCCCOC(=O)Nc1nc(=O)n(C2OC(C)C(O)C2O)cc1F (stereo not drawn)
GI50 [40]: > 46.9 µM
TGI [40]: 99.8 µM
